Each molecule was assayed against Active Human ERK2 (hERK2) (Homo sapiens (Human), UniProt P28482) (assay: Active Human ERK2 (hERK2) Activity Assay (IMAP-FP)). Conditions: phosphorylated active hERK2, 30 μM ATP; average; read-out: ERK 2 Human average IC50.
Assay type: biochemical
Procedure, shortened: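 Phosphorylation by activated human ERK2 (0.5 nM) at 30 μM ATP, peptide substrate 900 nM unlabeled with 80 nM labeled, proceeds 60 min. IMAP beads stop the reaction; after 60 min equilibration, product is measured by fluorescence polarization.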

Active Human ERK2 (hERK2), sequence (P28482 whole entry): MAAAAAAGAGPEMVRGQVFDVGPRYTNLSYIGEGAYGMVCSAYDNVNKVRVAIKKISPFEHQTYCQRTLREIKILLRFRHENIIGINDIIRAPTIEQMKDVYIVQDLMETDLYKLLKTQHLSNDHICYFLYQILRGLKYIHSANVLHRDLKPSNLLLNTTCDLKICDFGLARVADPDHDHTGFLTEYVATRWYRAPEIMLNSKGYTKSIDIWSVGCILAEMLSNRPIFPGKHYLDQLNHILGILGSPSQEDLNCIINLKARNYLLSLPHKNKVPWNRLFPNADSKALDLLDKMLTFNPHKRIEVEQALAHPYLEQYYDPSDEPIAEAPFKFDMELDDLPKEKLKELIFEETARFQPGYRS

Compound	IC50 [nM]
Cc1cc(-c2n[nH]c3cc(NC(=O)NC4(c5ccccn5)CCC4)ncc23)ccn1 [Example 355]	1.54
Cc1cc(-c2n[nH]c3cc(NC(=O)NC(C)(C)c4ccccn4)ncc23)ccn1 [Example 357]	106
Cc1cc(-c2n[nH]c3cc(NC(=O)Nc4noc5cnccc45)ncc23)ccn1 [Example 360]	0.378
Cc1cc(-c2n[nH]c3cc(NC(=O)N[C@H](CO)c4cccc5cc[nH]c45)ncc23)ccn1 [Example 362]	0.288
Cc1cc(-c2n[nH]c3cc(NC(=O)N[C@@H](CO)c4cccc5cc[nH]c45)ncc23)ccn1 [Example 363]	25.9
Cc1cc(-c2n[nH]c3cc(NC(=O)NCc4cccc(NS(C)(=O)=O)c4)ncc23)ccn1 [Example 366]	0.34
Cc1cc(-c2n[nH]c3cc(NC(=O)N[C@@H]4[C@H](CO)[C@H]5CC[C@@H]4O5)ncc23)ccn1 [Example 367]	4.51
Cc1cc(-c2n[nH]c3cc(NC(=O)NCc4ccc5[nH]cnc5c4)ncc23)ccn1 [Example 368]	2.79
Cc1cc(-c2n[nH]c3cc(NC(=O)NCc4ccc5c(c4)CNC5=O)ncc23)ccn1 [Example 369]	1.41
Cc1cc(-c2n[nH]c3cc(NC(=O)NCc4ccc(-c5ncc[nH]5)cc4)ncc23)ccn1 [Example 371]	59
Cc1cc(-c2n[nH]c3cc(NC(=O)NCc4cccc(-c5ncc[nH]5)c4)ncc23)ccn1 [Example 372]	1.33
Cc1cc(-c2n[nH]c3cc(NC(=O)NCCC4COc5ccccc5O4)ncc23)ccn1 (stereo not drawn) [Example 373]	1.07
Cc1cc(-c2n[nH]c3cc(NC(=O)NC(C)c4ccc(-n5cncn5)cc4)ncc23)ccn1 (stereo not drawn) [Example 375]	12.8
Cc1cc(-c2n[nH]c3cc(NC(=O)NC(C)c4ccc(S(C)(=O)=O)cc4)ncc23)ccn1 (stereo not drawn) [Example 376]	0.582
Cc1cc(-c2n[nH]c3cc(NC(=O)NC(c4ccccc4)C(F)F)ncc23)ccn1 (stereo not drawn) [Example 379]	1.51
Cc1cc(-c2n[nH]c3cc(NC(=O)NC4CCCC(O)C4)ncc23)ccn1 (stereo not drawn) [Example 380]	6.18
Cc1cc(-c2n[nH]c3cc(NC(=O)NCCc4nc5ccccc5n4C)ncc23)ccn1 [Example 382]	6.26
Cc1cc(-c2n[nH]c3cc(NC(=O)N[C@H]4CCCC(F)(F)[C@@H]4O)ncc23)ccn1 [Example 383]	13.3
Cc1cc(-c2n[nH]c3cc(NC(=O)NCCC4CCOC4)ncc23)ccn1 (stereo not drawn) [Example 387]	4.42
Cc1cc(-c2n[nH]c3cc(NC(=O)NCC4(O)CCN(C)CC4)ncc23)ccn1 [Example 388]	6.66
Cc1cc(-c2n[nH]c3cc(NC(=O)NCC(O)C4CCCCC4)ncc23)ccn1 (stereo not drawn) [Example 389]	4.11
Cc1cc(-c2n[nH]c3cc(NC(=O)NCc4nccc5ccccc45)ncc23)ccn1 [Example 390]	2.76
Cc1cc(-c2n[nH]c3cc(NC(=O)NCc4cn5c(C)cccc5n4)ncc23)ccn1 [Example 392]	22.6
Cc1cc(-c2n[nH]c3cc(NC(=O)NCC4(Nc5ccccc5)CCOCC4)ncc23)ccn1 [Example 398]	1.13
Cc1cc(-c2n[nH]c3cc(NC(=O)NCCC(=O)Nc4ccccc4Br)ncc23)ccn1 [Example 399]	2.06
Cc1cc(-c2n[nH]c3cc(NC(=O)NC4CCc5ccncc5C4)ncc23)ccn1 (stereo not drawn) [Example 400]	5.42
CCC(C)C(NC(=O)Nc1cc2[nH]nc(-c3ccnc(C)c3)c2cn1)c1ccc(Cl)cc1 (stereo not drawn) [Example 404]	11.1
Cc1cc(-c2n[nH]c3cc(NC(=O)N[C@@H]4CN[C@H](c5ccccc5)C4)ncc23)ccn1 [Example 405]	14.2
CCN(CC)CCC(NC(=O)Nc1cc2[nH]nc(-c3ccnc(C)c3)c2cn1)c1ccccc1 (stereo not drawn) [Example 406]	1.06
CC[C@H](NC(=O)Nc1cc2[nH]nc(-c3ccnc(C)c3)c2cn1)c1ccc(Cl)cc1 [Example 413]	39.2

Results, then the molecule that gave them:

IC50 [nM]	Compound
130	Cc1cc(-c2n[nH]c3cc(NC(=O)NC4(c5ccncc5)CC4)ncc23)ccn1 [Example 356]
137	Cc1cc(-c2n[nH]c3cc(NC(=O)NC4(c5ccccn5)CCCC4)ncc23)ccn1 [Example 358]
9.27	COc1ccc(C2(NC(=O)Nc3cc4[nH]nc(-c5ccnc(C)c5)c4cn3)CC2)cc1 [Example 359]
0.232	Cc1cc(-c2n[nH]c3cc(NC(=O)NC(CN)c4ccccc4)ncc23)ccn1 (stereo not drawn) [Example 361]
1.66	Cc1cc(-c2n[nH]c3cc(NC(=O)NC(C)c4ccc(F)cn4)ncc23)ccn1 (stereo not drawn) [Example 364]
0.603	Cc1cc(-c2n[nH]c3cc(NC(=O)NC(CO)c4cc(F)cc(F)c4)ncc23)ccn1 (stereo not drawn) [Example 365]
1.45	Cc1cc(-c2n[nH]c3cc(NC(=O)NCC4CC(C)(C)OC(C)(C)C4)ncc23)ccn1 [Example 370]
351	Cc1cc(-c2n[nH]c3cc(NC(=O)N[C@H]4CN[C@H](c5ccccc5)C4)ncc23)ccn1 [Example 374]
0.478	Cc1cc(-c2n[nH]c3cc(NC(=O)NCCc4nc5ccccc5[nH]4)ncc23)ccn1 [Example 377]
55.6	Cc1cc(-c2n[nH]c3cc(NC(=O)NC(CCN4CCCC4)c4ccncc4)ncc23)ccn1 (stereo not drawn) [Example 378]
6.71	CC(=O)OC1CCCC(NC(=O)Nc2cc3[nH]nc(-c4ccnc(C)c4)c3cn2)C1 (stereo not drawn) [Example 381]
24.7	Cc1cc(-c2n[nH]c3cc(NC(=O)NCC(c4ccccn4)N4CCOCC4)ncc23)ccn1 (stereo not drawn) [Example 384]
0.939	Cc1cc(-c2n[nH]c3cc(NC(=O)NCC(c4ccccc4)C4(O)CCOCC4)ncc23)ccn1 (stereo not drawn) [Example 385]
4.94	Cc1cc(-c2n[nH]c3cc(NC(=O)NCC(c4ccccc4)N4CCCCC4)ncc23)ccn1 (stereo not drawn) [Example 386]
22.2	Cc1ccc2nc(CNC(=O)Nc3cc4[nH]nc(-c5ccnc(C)c5)c4cn3)cn2c1 [Example 391]
13.8	Cc1cc(-c2n[nH]c3cc(NC(=O)NCc4cn5cccc(C)c5n4)ncc23)ccn1 [Example 393]
0.85	Cc1cc(-c2n[nH]c3cc(NC(=O)NCCc4cn[nH]c4)ncc23)ccn1 [Example 394]
7.66	Cc1cc(-c2n[nH]c3cc(NC(=O)NCc4cc5ccccc5cn4)ncc23)ccn1 [Example 395]
8.46	Cc1cc(-c2n[nH]c3cc(NC(=O)NC4CC(=O)Nc5ccc(F)cc54)ncc23)ccn1 (stereo not drawn) [Example 396]
48.1	Cc1cc(-c2n[nH]c3cc(NC(=O)NCc4nnc(-c5ccccc5)[nH]4)ncc23)ccn1 [Example 397]
20	Cc1cc(-c2n[nH]c3cc(NC(=O)NCCN4CCC(c5ccccc5)C4)ncc23)ccn1 (stereo not drawn) [Example 401]
5.72	Cc1cc(-c2n[nH]c3cc(NC(=O)NC4CC(=O)Nc5ccccc54)ncc23)ccn1 (stereo not drawn) [Example 407]
2	Cc1cc(-c2n[nH]c3cc(NC(=O)NCc4nc5ccccc5[nH]4)ncc23)ccn1 [Example 408]
5.69	Cc1cc(-c2n[nH]c3cc(NC(=O)NCC4CNC(c5ccccc5)C4)ncc23)ccn1 (stereo not drawn) [Example 409]
2.65	Cc1cc(-c2n[nH]c3cc(NC(=O)NCC4CCN(Cc5ccccc5)C4)ncc23)ccn1 (stereo not drawn) [Example 410]
34.1	Cc1cc(-c2n[nH]c3cc(NC(=O)N[C@@H](C)c4ccc(F)c(F)c4)ncc23)ccn1 [Example 411]
0.303	Cc1cc(-c2n[nH]c3cc(NC(=O)N[C@H](C)c4ccc(F)c(F)c4)ncc23)ccn1 [Example 412]

Source: patent US9023865B2, “Compounds that are ERK inhibitors” (Merck Sharp & Dohme Corp., priority 2011, dated 2015)
